Experimental data: patent US20190116791A1, “USE OF SAFENERS WITH PPO INHIBITOR HERBICIDES” (priority 2016, published 2019)
Values joined by “and” are separate entries in the source; they are usually repeats but may differ in a detail not shown here. Equal entries are not always repeated.

Columns and labels:
[1] = tested on: Morningglory; assay: Percent weed control, 0 to 100% rating system; format: in vivo; conditions: Table 6
Procedure: (§1) Percent weed control was determined by a method similar to the 0 to 100% rating system as described above and reproduced below for easy reference. The same weed control rating system also can be found such as in “Research Methods in Weed Science,” 2nd ed., B. Truelove, Ed.; Southern Weed Science Society; Auburn University, Auburn, Ala., 1977.

[2] = tested on: Velvetleaf; assay: Percent weed control, 0 to 100% rating system; format: in vivo; conditions: Table 6
Procedure: as §1

[3] = tested on: wheat specie “Yellowstone”; assay: Percent wheat injury, visual rating 0-100%, greenhouse, post-emergence spray; conditions: for Percent wheat injury 3 DAT / Percent wheat injury 7 DAT / Percent wheat injury 14 DAT / Injury: Yellowstone; for Injury / Percent injury on wheat, Yellowstone 3 DAT / Percent injury on wheat, Yellowstone 7 DAT / Percent injury on wheat, Yellowstone 14 DAT: Table 4; for Injury: time not stated; for Percent wheat injury, YELLOWSTONE (1) 3 DAT / Percent wheat injury, YELLOWSTONE (1) 7 DAT / Percent wheat injury, YELLOWSTONE (1) 14 DAT: Table 7 Test 1; for Percent wheat injury, YELLOWSTONE (1) 3 DAT / Percent wheat injury, YELLOWSTONE (1) 7 DAT / Percent wheat injury, YELLOWSTONE (1) 14 DAT / Percent wheat injury, YELLOWSTONE (2) 3 DAT / Percent wheat injury, YELLOWSTONE (2) 7 DAT / Percent wheat injury, YELLOWSTONE (2) 14 DAT: tank-mix; for Percent wheat injury, YELLOWSTONE (2) 3 DAT / Percent wheat injury, YELLOWSTONE (2) 7 DAT / Percent wheat injury, YELLOWSTONE (2) 14 DAT: Table 7 Test 2
[4] = tested on: wheat variety “Jagger”; assay: as above; conditions: for Injury / Percent injury on wheat, Jagger 3 DAT / Percent injury on wheat, Jagger 7 DAT / Percent injury on wheat, Jagger 14 DAT: Table 4; for Injury: Jagger, time not stated; for Percent wheat injury, JAGGER 3 DAT / Percent wheat injury, JAGGER 7 DAT / Percent wheat injury, JAGGER 14 DAT: Table 7 Test 1, tank-mix
[5] = Table 2, carfentrazone-ethyl 25 g ai/ha
[6] = Table 3, carfentrazone-ethyl 50 g ai/ha
[7] = carfentrazone-ethyl at 50 g, safened treatment as tank-mix or premix
[8] = fluthiacet-methyl 5.6 g ai/ha, 3 DAT
[9] = fluthiacet-methyl 11.2 g ai/ha, 3 DAT

**Q.** Which “Percent weed control, Morningglory 3 DAT” value ([1]; carfentrazone-ethyl 25 g ai/ha) does the source give for `CCOC(=O)C(Cl)Cc1cc(-n2nc(C)n(C(F)F)c2=O)c(F)cc1Cl` (centres unmarked) [Carfentrazone-ethyl, carfentrazone-ethyl] here?
**A.** Its value is 90 (A) %.

**Q.** And the “Percent weed control, Morningglory 7 DAT” value ([1]; carfentrazone-ethyl 25 g ai/ha)?
**A.** Its value is 100 (A) %.

**Q.** What about the “Percent weed control, Morningglory 3 DAT” value ([1]; carfentrazone-ethyl 50 g ai/ha) of the same compound?
**A.** Its value is 90 (A) %.

**Q.** And the “Percent weed control, Morningglory 7 DAT” value ([1]; carfentrazone-ethyl 50 g ai/ha)?
**A.** The value was 100 (A) %.

**Q.** And the “Percent weed control, Velvetleaf 3 DAT” value ([2]; carfentrazone-ethyl 25 g ai/ha)?
**A.** The value was 90 (A) %.

**Q.** What about the “Percent weed control, Velvetleaf 7 DAT” value ([2]; carfentrazone-ethyl 25 g ai/ha) of the same compound?
**A.** The value was 100%.

**Q.** What about the “Percent weed control, Velvetleaf 3 DAT” value ([2]; carfentrazone-ethyl 50 g ai/ha) of the same compound?
**A.** The value was 90 (A) %.

**Q.** What about the “Percent weed control, Velvetleaf 7 DAT” value ([2]; carfentrazone-ethyl 50 g ai/ha) of the same compound?
**A.** Its value is 100%.

**Q.** And the “Percent wheat injury 3 DAT” value ([3]; Table 2, carfentrazone-ethyl 25 g ai/ha, 3 DAT)?
**A.** The value was 34% and 34 (A) %.

**Q.** What about the “Percent wheat injury 3 DAT” value ([3]; Table 2, carfentrazone-ethyl 25 g ai/ha, 3 DAT, listed as carfentrazone-ethyl) of the same compound?
**A.** Its value is 34%.

**Q.** What about the “Percent wheat injury 7 DAT” value [3, 5] of the same compound?
**A.** The value was 28 (A) %.

**Q.** And the “Percent wheat injury 14 DAT” value [3, 5]?
**A.** Its value is 15 (A) %.

**Q.** And the “Percent wheat injury 3 DAT” value ([3]; Table 3, carfentrazone-ethyl 50 g ai/ha, 3 DAT)?
**A.** Its value is 43% and 43 (A) %.

**Q.** What about the “Percent wheat injury 7 DAT” value [3, 6] of the same compound?
**A.** The value was 36 (A) %.

**Q.** What about the “Percent wheat injury 14 DAT” value [3, 6] of the same compound?
**A.** Its value is 20 (A) %.

**Q.** And the Injury ([3]; carfentrazone-ethyl at 25 g)?
**A.** Its Injury is over 35%.

**Q.** And the Injury [3, 7]?
**A.** The Injury was over 40%.

**Q.** And the “Percent injury on wheat, Yellowstone 3 DAT” value ([3]; carfentrazone-ethyl 25 g ai/ha, 3 DAT)?
**A.** Its value is 38%.

**Q.** And the “Percent injury on wheat, Yellowstone 7 DAT” value ([3]; carfentrazone-ethyl 25 g ai/ha)?
**A.** Its value is 34%.

**Q.** And the “Percent injury on wheat, Yellowstone 14 DAT” value ([3]; carfentrazone-ethyl 25 g ai/ha)?
**A.** Its value is 24%.

**Q.** And the “Percent injury on wheat, Yellowstone 3 DAT” value ([3]; carfentrazone-ethyl 50 g ai/ha, 3 DAT)?
**A.** Its value is 44%.

**Q.** And the “Percent injury on wheat, Yellowstone 7 DAT” value ([3]; carfentrazone-ethyl 50 g ai/ha)?
**A.** The value was 39%.

**Q.** What about the “Percent injury on wheat, Yellowstone 14 DAT” value ([3]; carfentrazone-ethyl 50 g ai/ha) of the same compound?
**A.** Its value is 28%.

**Q.** And the Injury ([4]; carfentrazone-ethyl at 25 g)?
**A.** Its Injury is over 35%.

**Q.** And the Injury [4, 7]?
**A.** The Injury was over 40%.

**Q.** What about the “Percent injury on wheat, Jagger 3 DAT” value ([4]; carfentrazone-ethyl 25 g ai/ha) of the same compound?
**A.** Its value is 36%.

**Q.** And the “Percent injury on wheat, Jagger 7 DAT” value ([4]; carfentrazone-ethyl 25 g ai/ha)?
**A.** The value was 34%.

**Q.** What about the “Percent injury on wheat, Jagger 14 DAT” value ([4]; carfentrazone-ethyl 25 g ai/ha) of the same compound?
**A.** The value was 25%.

**Q.** What about the “Percent injury on wheat, Jagger 3 DAT” value ([4]; carfentrazone-ethyl 50 g ai/ha) of the same compound?
**A.** Its value is 43%.

**Q.** What about the “Percent injury on wheat, Jagger 7 DAT” value ([4]; carfentrazone-ethyl 50 g ai/ha) of the same compound?
**A.** The value was 38%.

**Q.** And the “Percent injury on wheat, Jagger 14 DAT” value ([4]; carfentrazone-ethyl 50 g ai/ha)?
**A.** Its value is 30%.

**Q.** Which “Percent wheat injury, YELLOWSTONE (1) 3 DAT” value [3, 8] does the source give for `COC(=O)CSc1cc(/N=c2\sc(=O)n3n2CCCC3)c(F)cc1Cl` [F-M, fluthiacet-methyl] here?
**A.** Its value is 12%.

**Q.** What about the “Percent wheat injury, YELLOWSTONE (1) 7 DAT” value ([3]; fluthiacet-methyl 5.6 g ai/ha) of the same compound?
**A.** Its value is 12%.

**Q.** What about the “Percent wheat injury, YELLOWSTONE (1) 14 DAT” value ([3]; fluthiacet-methyl 5.6 g ai/ha) of the same compound?
**A.** The value was 12%.

**Q.** What about the “Percent wheat injury, YELLOWSTONE (1) 3 DAT” value [3, 9] of the same compound?
**A.** Its value is 36%.

**Q.** What about the “Percent wheat injury, YELLOWSTONE (1) 7 DAT” value ([3]; fluthiacet-methyl 11.2 g ai/ha) of the same compound?
**A.** Its value is 34%.

**Q.** And the “Percent wheat injury, YELLOWSTONE (1) 14 DAT” value ([3]; fluthiacet-methyl 11.2 g ai/ha)?
**A.** The value was 34%.

**Q.** And the “Percent wheat injury, YELLOWSTONE (2) 3 DAT” value [3, 8]?
**A.** The value was 16%.

**Q.** What about the “Percent wheat injury, YELLOWSTONE (2) 7 DAT” value ([3]; fluthiacet-methyl 5.6 g ai/ha) of the same compound?
**A.** Its value is 11%.

**Q.** What about the “Percent wheat injury, YELLOWSTONE (2) 14 DAT” value ([3]; fluthiacet-methyl 5.6 g ai/ha) of the same compound?
**A.** The value was 12%.

**Q.** What about the “Percent wheat injury, YELLOWSTONE (2) 3 DAT” value [3, 9] of the same compound?
**A.** The value was 40%.

**Q.** What about the “Percent wheat injury, YELLOWSTONE (2) 7 DAT” value ([3]; fluthiacet-methyl 11.2 g ai/ha) of the same compound?
**A.** Its value is 36%.

**Q.** And the “Percent wheat injury, YELLOWSTONE (2) 14 DAT” value ([3]; fluthiacet-methyl 11.2 g ai/ha)?
**A.** Its value is 25%.

**Q.** And the “Percent wheat injury, JAGGER 3 DAT” value ([4]; fluthiacet-methyl 5.6 g ai/ha)?
**A.** Its value is 6%.

**Q.** What about the “Percent wheat injury, JAGGER 7 DAT” value ([4]; fluthiacet-methyl 5.6 g ai/ha) of the same compound?
**A.** The value was 8%.

**Q.** And the “Percent wheat injury, JAGGER 14 DAT” value ([4]; fluthiacet-methyl 5.6 g ai/ha)?
**A.** The value was 10%.

**Q.** What about the “Percent wheat injury, JAGGER 3 DAT” value ([4]; fluthiacet-methyl 11.2 g ai/ha) of the same compound?
**A.** The value was 35%.

**Q.** And the “Percent wheat injury, JAGGER 7 DAT” value ([4]; fluthiacet-methyl 11.2 g ai/ha)?
**A.** The value was 35%.

**Q.** What about the “Percent wheat injury, JAGGER 14 DAT” value ([4]; fluthiacet-methyl 11.2 g ai/ha) of the same compound?
**A.** The value was 19%.

**Q.** For `O=C1OC(=O)c2cccc3cccc1c23` [naphthalic anhydride], which “wheat injury in the presence of safener(s)” value ([3]; text on Tables 2 and 3, safener applied with carfentrazone-ethyl, regardless of rate (25 or 50 g), 3 DAT) is on record?
**A.** The value was “greater than 25%”.
